Laboratory results reported in ChEMBL document CHEMBL1131352, “Identification of a series of 1,2,3,4-tetrahydroisoquinolinyl-benzamides with potential anticonvulsant activity” (Bioorg Med Chem Lett, 1998).

Legend:
[1] = species: Mus musculus; assay: Anticonvulsant activity was determined in mouse maximal electroshock seizure threshold (MEST) model at 1 hour post dose.; assay type: functional
[2] = biological target: SB-204269 binding site; assay: Inhibition of [3H]SB-204269 binding in rat forebrain; assay type: tissue-based
[3] = species: Rattus norvegicus; assay: Anticonvulsant activity was determined in rat maximal electroshock seizure threshold (MEST) model at 4 hour post dose.; assay type: functional
[4] = species: Rattus norvegicus; assay: Anticonvulsant activity was determined in rat maximal electroshock seizure threshold (MEST) model at 4 hour post dose; assay type: functional
[5] = species: Mus musculus; assay: Anticonvulsant activity was determined in mouse maximal electroshock seizure threshold (MEST) model at 1 hour post dose; assay type: functional
[6] = biological target: SB-204269 binding site; assay: Binding affinity for [3H]SB-204269 in rat forebrain; assay type: tissue-based

Compound | Log Ki [2] | Increase [1] | further results
CCc1cc(OC)c(C(=O)Nc2cccc3c2CCN(C)C3)cc1Cl | -7.9 | 100% | 
COc1cc(N)c(Cl)cc1C(=O)Nc1cccc2c1CCN(C)C2 | -7.8 | 25% | 
COc1cc(C)c(Cl)cc1C(=O)Nc1cccc2c1CCN(C)C2 | -7.6 | 50% | 
CN1CCc2c(cccc2NC(=O)c2cccc(Cl)c2)C1 | < -5 |  | 
COc1ccccc1C(=O)Nc1cccc2c1CCN(C)C2 | -5.8 |  | 
COc1ccc(Cl)cc1C(=O)Nc1cccc2c1CCN(C)C2 | -7 | 20% | 
COc1c(Cl)cc(Cl)cc1C(=O)Nc1cccc2c1CCN(C)C2 | -5.4 |  | 
COc1ccc(Cl)cc1C(=O)Nc1ccc2c(c1)CN(C)CC2 | -7.2 | 4% | 
COc1cc([N+](=O)[O-])c(Cl)cc1C(=O)Nc1cccc2c1CCN(C)C2 | -6.8 |  | 
CC(=O)c1ccc2c(c1)[C@H](NC(=O)c1ccc(F)cc1)[C@@H](O)C(C)(C)O2 [CARABERSAT] |  |  | Increase [4]: 570%; Increase [5]: 100%; Log Ki [6]: -7.3
COc1cc(N)c(Cl)cc1C(=O)Nc1cccc2c1CN(C)CC2 | -6.1 |  | 

More lines, main results first:

Log Ki [2] | Compound | Increase [1] | further results
-7.6 | COc1cc(C(C)(C)C)ccc1C(=O)Nc1ccc2c(c1)CN(C)CC2 | 130% | Increase [3]: 110%
-6.1 | COc1cc(Cl)ccc1C(=O)Nc1cccc2c1CCN(C)C2 |  | 
-6.9 | COc1cc(C(C)(C)C)c(Cl)cc1C(=O)Nc1cccc2c1CCN(C)C2 |  | 
-7.3 | CCc1ccc(C(=O)Nc2cccc3c2CCN(C)C3)c(OC)c1 | 60% | 
-6.4 | COc1cc(C(C)(C)C)ccc1C(=O)Nc1ccc2c(c1)CCN(C)C2 | 4% | 
-6 | CN1CCc2c(cccc2NC(=O)c2ccc(C(C)(C)C)cc2)C1 |  | 
-7.7 | COc1cc(C(C)(C)C)ccc1C(=O)Nc1cccc2c1CCN(C)C2 | 140% | Increase [3]: 330%
